Laboratory results taken from publication PMC3630091, “A Mechanistic Paradigm for Broad-Spectrum Antivirals that Target Virus-Cell Fusion” (PLoS Pathogens, 2013).
Read-outs that look alike come from different tables or passages of the source.

Assays:
H1N1 = assay: microbe, parasite or virus in culture; type: cell-based, Influenza A A/PR/8/34 (H1N1); settings: read-out: IC50 H1N1
HIV = assay: microbe, parasite or virus in culture; type: cell-based; settings: Human immunodeficiency virus 1, 10 min
HSV = assay: microbe, parasite or virus in culture; type: cell-based, Herpes simplex virus-1; settings: Human alphaherpesvirus 1, 10 min
NiV = assay: microbe, parasite or virus in culture; type: cell-based, Nipah virus Malaysia
Ad5 = type: cell-based, Adenovirus serotype 5; settings: non-enveloped virus; 10 min white light exposure of treated virus
[1] = Absorbance spectra / UV-visible spectra integration; type: physicochemical; settings: for Abs Max (λmax): 100 µM in DMSO; for AUC (400-750 nm): integrated absorption divided by concentration, normalized relative to LJ001 (LJ001 = 100)
[2] = Membrane partition into HIV membrane-like mixture LUV (fluorescence); settings: for IL / Iw: HIV-like mixture LUV, fluorescence intensity ratio from curve fitting
RVFV = assay: microbe, parasite or virus in culture; type: cell-based, Rift Valley fever MP-12 (vaccine strain); settings: Rift Valley fever virus, 10 min, read-out: IC50 RVFV
RABV = assay: microbe, parasite or virus in culture; type: cell-based; settings: Lyssavirus rabies, 10 min, read-out: IC50 RABV
EBOV = assay: microbe, parasite or virus in culture; type: cell-based, Ebola Zaire; settings: Zaire ebolavirus, 10 min, read-out: IC50 EBOV
RVFV ZH501 = type: in vivo, Balb/c mice
in vitro = settings: human
[3] = Membrane partition into POPC LUV (fluorescence); settings: for IL / Iw: POPC LUV, fluorescence intensity ratio from curve fitting
NDV = assay: microbe, parasite or virus in culture; type: cell-based, Newcastle disease virus; settings: avian paramyxovirus 1, 10 min
CMV = assay: microbe, parasite or virus in culture; type: cell-based, Cytomegalovirus (strain T3259)
VSV = assay: microbe, parasite or virus in culture; type: cell-based; settings: Vesicular stomatitis virus, 10 min, read-out: IC50 VSV
[4] = Singlet oxygen quenching measurements; type: physicochemical; settings: 355 nm with C60 as external sensitizer; error is one standard deviation
[5] = Singlet oxygen quantum yield measurements; type: physicochemical; settings: for 1O2 QY 355 nm: in CD2Cl2, excitation 355 nm; for 1O2 QY 355 nm / 1O2 QY 532 nm: error is one standard deviation; for 1O2 QY 532 nm: in CD2Cl2, excitation 532 nm
SFV = assay: microbe, parasite or virus in culture; type: cell-based; settings: Semliki Forest virus, BHK, 10 min, read-out: IC50 SFV
HeV = assay: microbe, parasite or virus in culture; type: cell-based, Hendra virus; settings: Henipavirus hendraense, 10 min, read-out: IC50 HeV
[6] = Clinical observations after single dose in PK study; type: in vivo, female Balb/c mice
Procedure: Dose administration. […] These mice were replaced and the dose level was reduced to 5 mg/kg. […] Hypoactivity was the only clinical observation noted in some of the mice treated with the 3 test articles at 10 and 100 mg/kg po. […] These animals were replaced and administered with the lower ip dose level of 1.25 mg/kg and underwent blood collections. Mice received single ip doses of 1.25 mg/kg (JL109 and JL118) or 5 mg/kg (JL122) and po doses of 10 mg/kg (JL109, JL118, JL122), 50 mg/kg (JL109, JL118), or 100 mg/kg (JL109, JL118, JL122).

HIV-1JR-CSF = type: cell-based
[7] = Acrylamide quenching in POPC vesicles; type: physicochemical; settings: >50-fold molar excess of lipid; 3 mM POPC vesicles
[8] = tested on: VSV-ΔG-rluc pseudotyped with NiV envelope glycoproteins, F and G
enveloped viruses = tested on: enveloped viruses; parameters: method as in PMID 20133606; settings: non-cytotoxic concentrations; read-out: IC50, entry of numerous enveloped viruses; cited from earlier work
[9] = tested on: influenza virus A (A/PR/8/34 H1N1); settings: 5 µM, light 1 h
[10] = Influenza A virus, H1N1, 10 min
[11] = read-out: IC50 ± SD (nM) (N=x) HIV
[12] = read-out: IC50 ± SD (nM) (N=x) HSV
[13] = Henipavirus nipahense, 10 min, read-out: IC50 NiV, 10 min white light exposure of treated virus
[14] = read-out: IC50 NiV, 10 min white light exposure of treated virus
[15] = read-out: IC50 ± SD (nM) (N=x) NDV
[16] = Human betaherpesvirus 5, 10 min, read-out: IC50 CMV, 10 min white light exposure of treated virus

SMILES	IC50 (H1N1; [10]) [nM]	IC50 (H1N1) [nM]	IC50 (HIV; read-out: IC50 HIV) [nM]	IC50 (HIV; [11]) [nM]	IC50 (HSV; read-out: IC50 HSV) [nM]	IC50 (HSV; [12]) [nM]	IC50 (NiV; [13]) [nM]	IC50 (NiV; [14]) [nM]	Abs Max (λmax) [1] [nm]	AUC (400-750 nm) [1]	Kp at 10 min, 50 µM [2]	IL / Iw [2]	IC50 (RVFV) [nM]	IC50 (RABV) [nM]	IC50 (EBOV) [nM]	CC50 (in vitro) [µM]	IL / Iw [3]	IC50 (NDV; read-out: IC50 NDV) [nM]	IC50 (NDV; [15]) [nM]	IC50 (CMV; [16]) [nM]	further results
CCN1C(=S)O/C(=C\c2ccc(-c3ccccc3OC)o2)C1=S [JL103, (Z) 3-Ethyl-5-[5-(2-methoxyphenyl)-furan-2-ylmethylene]oxazolid-ine-2,4-dithione]	1.7	2	13	12.2 ± 9.7	2	1.9 ± 2.5	3.9	4	515	153	310	68.29	3	260	185	9.14	14.78	4	5.7 ± 6.4	5	IC50 Ad5 (Ad5): inactive; total integrated absorption (AUC), times that of LJ001 ([1]; λ = 400 to 750 nm): 1.53 times; time-to-death / survival compared to untreated controls (RVFV ZH501; 20 pfu RVFV ZH501 IP, IP once a day for 7 days from 1 h post-challenge, JL118 1.25 mg/kg, JL122 and JL103 10 mg/kg): no significant effect on survival; Median survival (RVFV ZH501; 50 pfu RVFV ZH501 IP, 10 mg/kg IP at 1, 12, 24 and 48 h post-challenge, n = 5): 3 days; Kp at 10 min, 50 µM [3]: 580; IC50 (CMV; read-out: IC50 CMV, 10 min white light exposure of treated virus): 4 nM; IC50 (VSV): 11 nM; kT × 10-7 [4]: 0.636 ± 0.030 M-1s-1; QY at 355 nm, times higher than LJ001 ([5]; 355 nm): about 2 times; 1O2 QY 355 nm [5]: 0.36 ± 0.02; 1O2 QY 532 nm [5]: 0.30 ± 0.03; bioavailability (Pharmacokinetics in mice; female, Balb/c, mouse, in vivo, ip, 10 mg/kg): ~50%; bioavailability (Pharmacokinetics in mice; female, Balb/c, mouse, in vivo, po, 100 mg/kg): 3.1 to 105%; improvements in relevant pharmacokinetic (PK) parameters compared to LJ001 (Pharmacokinetics in mice; half-life, AUC, bioavailability, clearance): > 10 fold; IC50 (SFV): 44 nM; IC50 (HeV): 0.5 nM; clinical observations ([6]; single dose 10 mg/kg ip): appeared normal; reduction of antiviral activity at physiological Hct (HIV-1JR-CSF): > 50%
C=CCN1C(=O)/C(=C/c2ccc(-c3ccccc3)o2)SC1=S [LJ001, (Z)-3-allyl-5-((5-phenylfuran-2-yl)methylene)-2-thioxothiazolidin-4-one]	25.7	26	133	182 ± 244	20	35.3 ± 48.3	47.5	48	455	100	5190	2.41	20	5290	900	11.9	2.29	95	181 ± 105	147	fraction protected from the water-soluble quencher (acrylamide) [7]: over 85%; t1/2 (inhibition half-life, time-of-addition) [8]: 67 min; IC50 (enveloped viruses): ≤ 500 nM; IC50 (VSV): 298 nM; kT × 10-7 [4]: 0.189 ± 0.010 M-1s-1; 1O2 QY 355 nm [5]: 0.20 ± 0.02; 1O2 QY 532 nm [5]: 0; clearance (Pharmacokinetics in mice; female, Balb/c, mouse, in vivo): ~700 mL/min/kg; half-life (Pharmacokinetics in mice; female, Balb/c, mouse, in vivo): 12 min; time post-dose up to which plasma levels were detectable (Pharmacokinetics in mice; ip 5 mg/kg): ≤ 0.5 h; time post-dose up to which plasma levels were detectable (Pharmacokinetics in mice; iv 10 mg/kg): up to 1 hr; IC50 (SFV): 537 nM; IC50 (HeV): 18 nM; clinical observations ([6]; single dose 5 mg/kg ip): appeared normal; clinical observations ([6]; single dose 10 mg/kg ip): 2 were sacrificed in moribund condition and 1 was found dead; increase in the number of oxidized forms of unsaturated phospholipids compared to LJ025-treated samples [9]: up to 300 fold
